# Read-outs that look alike come from different tables or passages of the source.
# Columns and labels:
# [1] = tested on: brain cancer cell lines; assay: Cell based assay, cell viability (CellTiter-Glo), brain cancer cell lines; conditions: Homo sapiens
# Description: Commercially available bladder cancer, prostate cancer, lung cancer, breast cancer, blood cancer, pancreatic cancer, colorectal cancer, brain cancer, neuroblastoma, melanoma, liver cancer, cervical carcinoma, ovarian cancer, renal cancer, and papilloma cell lines were each treated with trypsin-EDTA and cultured, followed by being seeded in each well of a 96 well plate. […] The treated cells were additionally cultured for 72 hours, and cell viability was measured by using an ATP detection method (CellTiter-Glo® Luminescent Cell Viability Assay, Promega).
# [2] = tested on: lung cancer cell lines (e.g. NCI-H23, NCI-H1229); assay: Cell based assay, cell viability (CellTiter-Glo), lung cancer cell lines; conditions: Homo sapiens, 72 hours treatment, CellTiter-Glo
# Description: (§1) Commercially available bladder cancer, prostate cancer, lung cancer, breast cancer, blood cancer, pancreatic cancer, colorectal cancer, brain cancer, neuroblastoma, melanoma, liver cancer, cervical carcinoma, ovarian cancer, renal cancer, and papilloma cell lines were each treated with trypsin-EDTA and cultured, followed by being seeded in each well of a 96 well plate. After 24 hours of treatment at constant temperature, the respective cells were treated with the candidate compound so that a final concentration became 0 to 2 μM. The treated cells were additionally cultured for 72 hours, and cell viability was measured by using an ATP detection method (CellTiter-Glo® Luminescent Cell Viability Assay, Promega).
# [3] = tested on: melanoma cell lines; assay: Cell based assay, cell viability (CellTiter-Glo), melanoma cell lines; conditions: Homo sapiens; LOX-IMVI cell line
# Description: as §1
# [4] = U138-MG, U-138 MG cell line, read-out: IC50, Brain cancer cell line U-138 MG
# [5] = T98G cell line, read-out: IC50, Brain cancer cell line T98G
# [6] = U-251 MG cell line, read-out: IC50, Brain cancer cell line U-251 MG
# [7] = A549 cells, read-out: IC50, lung cancer cell line A549
# [8] = DMS 114 cells, read-out: IC50, lung cancer cell line DMS 114
# [9] = NCI-H23 cells, read-out: IC50, lung cancer cell line NCI-H23
# [10] = NCI-H460 cells, read-out: IC50, lung cancer cell line NCI-H460
# [11] = NCI-H522 cells, read-out: IC50, lung cancer cell line NCI-H522
# [12] = NCI-H1299 cells, read-out: IC50, lung cancer cell line NCI-H1299
# [13] = NCI-H1437 cells, read-out: IC50, lung cancer cell line NCI-H1437
Structure (SMILES),"IC50 [1, 4] [µM]","IC50 [1, 5] [µM]","IC50 [1, 6] [µM]","IC50 [2, 7] [µM]","IC50 [2, 8] [µM]","IC50 [2, 9] [µM]","IC50 [2, 10] [µM]","IC50 [2, 11] [µM]","IC50 [2, 12] [µM]","IC50 [2, 13] [µM]",IC50 [3] [µM],"IC50 ([2]; MRC-5 cells, read-out: IC50) [µM]"
"CC(=O)c1c(Sc2ccc(Br)cc2)[nH]c2c(Br)ccc(Cl)c2c1=O [Compound 16, 3-acetyl-8-bromo-2-((4-bromophenyl)thio)-5-chloroquinolin-4(1H)-one]",> 10,> 10,> 2,> 2,> 2,> 2,> 2,> 2,> 2,> 10,> 2,> 2
"CC(=O)c1c(S(C)(=O)=O)n(C(=O)c2ccc(Br)cc2)c2c(Br)ccc(Cl)c2c1=O [Compound 21, 3-acetyl-8-bromo-1-(4-bromobenzoyl)-5-chloro-2-(methylsulfonyl)quinolin-4(1H)-one]",> 10,> 10,> 2,> 2,> 2,> 2,> 2,> 2,> 2,> 10,> 2,> 2
"CC(=O)c1c(SCc2ccccc2)n(C(=O)c2ccc(Br)cc2)c2c(Br)ccc(Cl)c2c1=O [Compound 23, 3-acetyl-2-(benzylthio)-8-bromo-1-(4-bromobenzoyl)-5-chloroquinolin-4(1H)-one]",> 10,> 10,> 2,> 2,> 2,> 2,> 2,> 2,> 2,> 10,> 2,> 2
"CC(=O)c1c(SC(C)C)[nH]c2c(Br)ccc(Cl)c2c1=O [Compound 24, 3-acetyl-8-bromo-5-chloro-2-(isopropylthio)quinolin-4(1H)-one]",> 10,> 10,> 2,> 2,> 2,> 2,> 2,> 2,> 2,> 10,> 2,> 2
"CC(=O)c1c([S+]([O-])C(C)C)[nH]c2c(Br)ccc(Cl)c2c1=O (stereo not drawn) [Compound 25, 3-acetyl-8-bromo-5-chloro-2-(isopropylsulfinyl)quinolin-4(1H)-one]",> 10,> 10,> 2,> 2,> 2,> 2,> 2,> 2,> 2,> 10,> 2,> 2
"CC(=O)c1c(SCc2cccc(C#N)c2)[nH]c2c(Br)ccc(Cl)c2c1=O [Compound 27, 3-(((3-acetyl-8-bromo-5-chloro-4-oxo-1,4-dihydroquinolin-2-yl)thio)methyl)benzonitrile]",> 10,> 10,> 2,> 2,> 2,> 2,> 2,> 2,> 2,> 10,> 2,> 2

# The next lines start with results.
"IC50 [1, 4] [µM]","IC50 [1, 5] [µM]","IC50 [1, 6] [µM]","IC50 [2, 7] [µM]","IC50 [2, 8] [µM]","IC50 [2, 9] [µM]","IC50 [2, 10] [µM]","IC50 [2, 11] [µM]","IC50 [2, 12] [µM]","IC50 [2, 13] [µM]",IC50 [3] [µM],Structure (SMILES),"IC50 ([2]; MRC-5 cells, read-out: IC50) [µM]"
> 2,> 10,> 2,> 2,> 2,1.56,> 2,> 2,> 2,> 10,> 2,"COc1ccccc1[S+]([O-])c1[nH]c2c(Br)ccc(Cl)c2c(=O)c1C(C)=O (stereo not drawn) [Compound 15, 3-acetyl-8-bromo-5-chloro-2-((2-methoxyphenyl)sulfinyl)quinolin-4(1H)-one]",> 2
> 10,> 10,> 2,> 2,> 2,> 2,> 2,> 2,> 2,> 10,> 2,"CC(=O)c1c([S+]([O-])c2ccc(Br)cc2)[nH]c2c(Br)ccc(Cl)c2c1=O (stereo not drawn) [Compound 17, 3-acetyl-8-bromo-2-((4-bromophenyl)sulfinyl)-5-chloroquinolin-4(1H)-one]",> 2
> 10,> 10,> 2,> 2,> 2,> 2,> 2,> 2,> 2,> 10,> 2,"CSc1c(C(C)=O)c(=O)c2c(Cl)ccc(Br)c2n1C(C)=O [Compound 18, 1,1′-(8-bromo-5-chloro-2-(methylthio)-4-oxoquinoline-1,3(4H)-diyl)bis(ethan-1-one)]",> 2
> 10,> 10,> 2,> 2,> 2,> 2,> 2,> 2,> 2,> 10,> 2,"CC(=O)c1c([S+](C)[O-])n(C(C)=O)c2c(Br)ccc(Cl)c2c1=O (stereo not drawn) [Compound 19, 1,1′-(8-bromo-5-chloro-2-(methylsulfinyl)-4-oxoquinoline-1,3(4H)-diyl)bis(ethan-1-one)]",> 2
> 10,> 10,> 2,> 2,> 2,1.39,1.58,> 2,1.58,> 2,> 2,"CC(=O)c1c([S+]([O-])Cc2ccccc2)n(C(=O)c2ccc(Br)cc2)c2c(Br)ccc(Cl)c2c1=O (stereo not drawn) [Compound 20, 3-acetyl-2-(benzylsulfinyl)-8-bromo-1-(4-bromobenzoyl)-5-chloroquinolin-4(1H)-one]",> 2
> 10,> 10,> 2,> 2,> 2,> 2,> 2,> 2,> 2,> 10,> 2,"CC(=O)c1c([S+](C)[O-])n(Cc2ccc(F)c(Cl)c2)c2c(Br)ccc(Cl)c2c1=O (stereo not drawn) [Compound 22, 3-acetyl-8-bromo-5-chloro-1-(3-chloro-4-fluorobenzyl)-2-(methylsulfinyl)quinolin-4(1H)-one]",> 2
> 2,> 2,> 2,> 2,> 2,> 2,> 2,> 2,> 2,> 10,> 2,"CC(=O)c1c([S+]([O-])C(C)c2ccccc2)[nH]c2c(Br)ccc(Cl)c2c1=O (stereo not drawn) [Compound 26, 3-acetyl-8-bromo-5-chloro-2-((1-phenylethyl)sulfinyl)quinolin-4(1H)-one]",> 2
1.26,> 10,0.88,> 2,> 2,0.75,1.6,1.88,1.11,> 10,0.88,"CC(=O)c1c([S+]([O-])Cc2cccc(C#N)c2)[nH]c2c(Br)ccc(Cl)c2c1=O (stereo not drawn) [Compound 28, 3-(((3-acetyl-8-bromo-5-chloro-4-oxo-1,4-dihydroquinolin-2-yl)sulfinyl)methyl)benzonitrile]",0.7
